Data on eleven compounds can be found in ChEMBL document CHEMBL1201862, “PubChem BioAssay data set” (2004).

Structures are written as SMILES.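 Tested at 5 concentrations; 48 h exposure; 96-well plates; endpoints linearly interpolated, else capped at highest concentration. GI50 = concentration required for 50% inhibition of growth.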 The source made the active and inactive calls. No stated cut-off is given here; in the data, active = GI50 up to about 1.1 µM and inactive = higher.

Some test systems named below: Malme-3M; NCI-H23; UACC-62; SNB-19; HCT-15; EKVX; T47D; MOLT-4; SNB-75; SR; HCC 2998; M14; HOP-92; A549; SK-OV-3; CAKI-1; SK-MEL-2; NCI-H460; SW-620.
What all share (test): NCI anticancer screen, dose series, 48 h

On to `CCOP(=O)(OCC)C(Nc1cccc([N+](=O)[O-])c1)c1ccccc1` (stereo unspecified), for which the GI50 with Malme-3M was 40.1 µM (inactive); in the experiment on NCI-H23, > 100 µM (inactive); with UACC-62, 58.2 µM (inactive); in the experiment with SNB-19 it was > 100 µM (inactive); in the experiment on HCT-15 it was 71.6 µM; in the experiment on EKVX it was 62.2 µM (inactive). The GI50 with T47D was 18.8 µM (inactive); in the experiment with MOLT-4 it was 39.4 µM (inactive); with SNB-75, 71.9 µM (inactive); in the experiment on SR, > 100 µM (inactive); in the experiment with HCC 2998, > 100 µM (inactive); with M14, > 100 µM (inactive). The GI50 is 62.4 µM (inactive) in the experiment on HOP-92; 57.1 µM (inactive) in the experiment with A549; > 100 µM (inactive) in the experiment with SK-OV-3; > 100 µM (inactive) with CAKI-1; 82.4 µM (inactive) in the experiment on SK-MEL-2; 80 µM (inactive) in the experiment with NCI-H460.
For the compound `c1ccc2sc(SCCSc3nc4ccccc4s3)nc2c1`, the GI50 was > 100 µM (inactive) with Malme-3M; > 100 µM (inactive) in the experiment on NCI-H23; > 100 µM (inactive) in the experiment on UACC-62; > 100 µM (inactive) in the experiment with SNB-19; over 100 µM in the experiment with HCT-15; > 100 µM (inactive) in the experiment on EKVX. For the same compound, the GI50 in the experiment on T47D was > 100 µM (inactive); in the experiment on SNB-75 it was 74.3 µM (inactive); with SR it was > 100 µM (inactive); with HCC 2998 it was 20.3 µM (inactive); in the experiment with M14, > 100 µM (inactive); with SW-620 it was > 100 µM (inactive). Moreover, the GI50 in the experiment on HOP-92, with A549, with SK-OV-3, in the experiment on CAKI-1, in the experiment with SK-MEL-2 and in the experiment with NCI-H460 was > 100 µM (inactive) each time.
`N#C/C(=C/N1C(=O)/C(=C/c2ccc([N+](=O)[O-])cc2)SC1=S)c1nc2ccccc2s1`: the GI50 is 25.8 µM (inactive) in the experiment with Malme-3M; 20.7 µM (inactive) in the experiment on NCI-H23; 4.42 µM (inactive) in the experiment on UACC-62; 29.6 µM (inactive) in the experiment on SNB-19; 21.6 µM with HCT-15; 18.4 µM (inactive) in the experiment on EKVX. The GI50 in the experiment on T47D was 8.85 µM (inactive); in the experiment on SNB-75, 25.1 µM (inactive); in the experiment with SR, 25.6 µM (inactive); in the experiment with HCC 2998 it was 14.2 µM (inactive); in the experiment with M14, 27.8 µM (inactive); in the experiment with SW-620, 34.8 µM (inactive). Also, the GI50 with HOP-92 is 17.5 µM (inactive); with A549 it was 25.6 µM (inactive); in the experiment on SK-OV-3 it was 15.9 µM (inactive); in the experiment with CAKI-1, 30.8 µM (inactive); with SK-MEL-2, 16.7 µM (inactive); in the experiment with NCI-H460, 14.8 µM (inactive).
Turning to `COc1cc(/C=C2\CCC(C)C3C2=NN(C(C)=O)C3c2cc(OC)c(OC)c(OC)c2)cc(OC)c1OC` (stereo unspecified), the GI50 is 43.6 µM (inactive) in the experiment on Malme-3M; > 100 µM (inactive) in the experiment on NCI-H23; 38.8 µM (inactive) in the experiment on UACC-62; > 100 µM (inactive) with SNB-19; 99.8 µM in the experiment with HCT-15; > 100 µM (inactive) with EKVX. Besides, the GI50 with T47D was 9.86 µM (inactive); with MOLT-4, > 100 µM (inactive); in the experiment with SNB-75 it was 15.8 µM (inactive); in the experiment on SR, > 52.6 µM (inactive); with HCC 2998 it was > 100 µM (inactive); in the experiment on M14, > 100 µM (inactive). For the same compound, the GI50 with SW-620 was > 100 µM (inactive); with HOP-92, > 100 µM (inactive); in the experiment on A549 it was > 100 µM (inactive); in the experiment on SK-OV-3, > 100 µM (inactive); in the experiment with CAKI-1, 14.2 µM (inactive); in the experiment on NCI-H460, > 100 µM (inactive).
`O=C(c1ccc(Cl)c(Cl)c1)N(Cc1cccnc1)C(=S)N(Cc1cccnc1)C(=O)c1ccc(Cl)c(Cl)c1`: the GI50 in the experiment on Malme-3M was 52.8 µM (inactive); in the experiment on NCI-H23, 37.8 µM (inactive); in the experiment with UACC-62 it was 50.7 µM (inactive); with SNB-19, 27.9 µM (inactive); in the experiment on HCT-15 it was 20 µM; in the experiment with EKVX, 40.6 µM (inactive). The GI50 is 26.7 µM (inactive) in the experiment with T47D; 37.3 µM (inactive) in the experiment on MOLT-4; 38.4 µM (inactive) in the experiment on SNB-75; 17.5 µM (inactive) in the experiment on SR; 20.5 µM (inactive) with HCC 2998; 21.2 µM (inactive) with M14. Besides, the GI50 is 29.2 µM (inactive) with SW-620; 36.1 µM (inactive) in the experiment on HOP-92; > 100 µM (inactive) with A549; > 100 µM (inactive) in the experiment with SK-OV-3; 31.6 µM (inactive) with CAKI-1; 25.1 µM (inactive) in the experiment on SK-MEL-2. Besides, in the experiment with NCI-H460, the GI50 was 44.7 µM (inactive).
Regarding `C/C(=N\NC(=S)NC(C)C)c1nc2cccnc2[nH]1`, the GI50 was 33.9 µM (inactive) in the experiment on Malme-3M; 29.8 µM (inactive) in the experiment with UACC-62; 30.9 µM (inactive) in the experiment with SNB-19; 11.3 µM in the experiment with HCT-15; 13.5 µM (inactive) with EKVX; 0.33 µM (active) with T47D. Besides, the GI50 with MOLT-4 was 9.95 µM (inactive); in the experiment on SNB-75, 28.1 µM (inactive); in the experiment on SR, 11.7 µM (inactive); with HCC 2998, 19.4 µM (inactive); in the experiment with M14, 57.9 µM (inactive); with SW-620 it was 12.1 µM (inactive). For the same compound, the GI50 in the experiment with HOP-92 was 39.9 µM (inactive); with A549, 31.5 µM (inactive); in the experiment on SK-OV-3, 12.7 µM (inactive); with CAKI-1, 18.2 µM (inactive); in the experiment on SK-MEL-2, 18.7 µM (inactive); in the experiment with NCI-H460, 14 µM (inactive).
Take `COc1cc(CNC(=S)CCCCCCCCCCC(C)C)ccc1O`: the GI50 in the experiment with Malme-3M was > 100 µM (inactive); with NCI-H23 it was 28.7 µM (inactive); in the experiment with UACC-62, 34.4 µM (inactive); in the experiment on SNB-19, 72.6 µM (inactive); in the experiment with HCT-15, 63 µM; with EKVX, 62.8 µM (inactive). For the same compound, the GI50 with T47D is 27 µM (inactive); in the experiment with MOLT-4 it was 5.92 µM (inactive); in the experiment with SNB-75 it was > 100 µM (inactive); with SR it was 3.01 µM (inactive); with HCC 2998, 63.1 µM (inactive); in the experiment on M14 it was 48.4 µM (inactive). Besides, the GI50 in the experiment on SW-620 was > 100 µM (inactive); with HOP-92, 24.2 µM (inactive); in the experiment on A549 it was 53 µM (inactive); in the experiment on SK-OV-3, > 100 µM (inactive); in the experiment on NCI-H460, 42.9 µM (inactive).
For `OC(CC1CCCCN1)c1ccc2c(c1)oc1ccccc12` (stereo unspecified), the GI50 in the experiment with Malme-3M was 38.9 µM (inactive); in the experiment with NCI-H23, > 100 µM (inactive); in the experiment on UACC-62, 22.6 µM (inactive); in the experiment with SNB-19 it was > 100 µM (inactive); with HCT-15 it was 52.2 µM; with EKVX, 49 µM (inactive). Besides, the GI50 is > 100 µM (inactive) in the experiment with T47D; 28.2 µM (inactive) with MOLT-4; 39.6 µM (inactive) in the experiment with SNB-75; 67.3 µM (inactive) in the experiment on SR; 30.4 µM (inactive) in the experiment on HCC 2998; 18.8 µM (inactive) in the experiment with M14. Moreover, the GI50 with SW-620 was > 100 µM (inactive); in the experiment with HOP-92, 48.3 µM (inactive); with A549, > 100 µM (inactive); with SK-OV-3 it was > 100 µM (inactive); with CAKI-1, 52.8 µM (inactive); in the experiment on SK-MEL-2 it was 34 µM (inactive). Besides, the GI50 with NCI-H460 was 43.6 µM (inactive).
For `OC(CCN1CCN(CCOC(c2ccc(F)cc2)c2ccc(F)cc2)CC1)c1ccc(Br)cc1` (stereo unspecified), the GI50 in the experiment on Malme-3M is 2.12 µM (inactive); in the experiment with NCI-H23 it was 6.75 µM (inactive); in the experiment with UACC-62, 4.06 µM (inactive); in the experiment on SNB-19, 7.6 µM (inactive); in the experiment with HCT-15, 2.74 µM; in the experiment with EKVX it was 5.15 µM (inactive). The GI50 is 3.05 µM (inactive) in the experiment on T47D; 2.4 µM (inactive) with MOLT-4; 9.77 µM (inactive) in the experiment with SNB-75; 2.34 µM (inactive) with SR; 1.97 µM (inactive) in the experiment with HCC 2998; 1.96 µM (inactive) with M14. Also, the GI50 is 4.67 µM (inactive) in the experiment on SW-620; 4.37 µM (inactive) in the experiment with HOP-92; 9.44 µM (inactive) in the experiment on A549; 7.35 µM (inactive) with SK-OV-3; 2.02 µM (inactive) with CAKI-1; 5.36 µM (inactive) in the experiment on SK-MEL-2. Further, in the experiment with NCI-H460, the GI50 was 2.42 µM (inactive).
On to `CCNC(=S)N/N=C(\C)c1cccc(C)n1`, for which the GI50 is 2.39 µM (inactive) in the experiment on Malme-3M; 23 µM (inactive) in the experiment on NCI-H23; 15.4 µM (inactive) with UACC-62; 30.3 µM (inactive) in the experiment with SNB-19; 7.18 µM in the experiment on HCT-15; 2.04 µM (inactive) in the experiment with EKVX. Further, the GI50 with T47D was 0.643 µM (active); in the experiment on MOLT-4, 0.631 µM (active); with SNB-75, 75.2 µM (inactive); in the experiment on SR, > 100 µM (inactive); in the experiment with HCC 2998, 3.13 µM (inactive); with M14 it was 11 µM (inactive). In addition, the GI50 was 18.6 µM (inactive) with SW-620; 13.5 µM (inactive) in the experiment with HOP-92; 20.6 µM (inactive) with A549; 13.1 µM (inactive) in the experiment on SK-OV-3; 42.8 µM (inactive) with SK-MEL-2; 6.01 µM (inactive) in the experiment with NCI-H460.
Turning to `C=C(C)CCC(O)[C@](C)(O)[C@H]1[C@H](O)C[C@@]2(C)[C@@H]3CCc4c(cc(OC5OC(CO)C(O)C(O)C5O)c(O)c4C)C3(C)C(=O)C[C@]12C` (stereo partly specified), the GI50 was > 100 µM (inactive) in the experiment on Malme-3M; > 100 µM (inactive) in the experiment on NCI-H23; > 100 µM (inactive) in the experiment on UACC-62; > 100 µM (inactive) with SNB-19; over 100 µM in the experiment with HCT-15; > 100 µM (inactive) with EKVX. The GI50 in the experiment on T47D, in the experiment on MOLT-4, in the experiment on SNB-75, with SR, in the experiment on HCC 2998 and with M14 was > 100 µM (inactive) in each case. For the same compound, the GI50 in the experiment on SW-620, with HOP-92, with A549, in the experiment on SK-OV-3, in the experiment with CAKI-1 and in the experiment with SK-MEL-2 was > 100 µM (inactive) in each case. In addition, the GI50 with NCI-H460 is > 100 µM (inactive).
